Measurements taken from patent publication US20260109732A1, “LIPID AMINES” (ModernaTX, Inc., priority 2021, published 2026).
Counter-ions that a name gives are not always drawn.

How the values were obtained:
[1] = Diameter and PDI from DLS measurements of mRNA nanoparticles with lipid amines; format: physicochemical
Method in brief: (§1)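 Ionizable lipid nanoparticles (IL1:DSPC:cholesterol:PEG-DMG-2K) formed by vortex mixing at pH 4, loaded with luciferase or CFTR mRNA at N:P 4.93, neutralized with TRIS pH 8.12, then modified with lipid amine SA50 at pH 7.5. Particle diameter and PDI read by DLS; mRNA encapsulation by Ribogreen assay.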

[2] = Encapsulation of mRNA nanoparticles with lipid amines using Ribogreen assay; format: physicochemical
Method in brief: as §1

HeLa cells [3] = test: Luciferase Protein Expression Assay in HeLa Cells; format: cell-based, Human; conditions: LNPs encapsulating Luciferase mRNA, 25 ng per well, N=4 wells; 5 h serum-free then 24 h; ONE-Glo
Method in brief: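 HeLa cells received LNPs carrying luciferase mRNA (25 ng per well) or PBS in serum-free MEM for 5 h, then complete MEM for a further 24 h. Luciferase then read by ONE-Glo luminescence after lysis and reported as average RLU of 4 replicate wells.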

HeLa cells [4] = test: CFTR Protein Expression Assay in HeLa Cells; format: cell-based, Human; conditions: LNPs encapsulating CFTR mRNA, N=4 wells; 5 h serum-free then 24 h; immunofluorescence vs PBS control
Method in brief: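 HeLa cells dosed with CFTR mRNA LNPs (70 mM NaCl final buffer matrix) in serum-free MEM for 5 h, then complete MEM for 24 h. Fixed cells immunostained with anti-CFTR monoclonal and Alexa 488 secondary, imaged confocally; CFTR intensity per cell expressed as fold-change versus PBS buffer control, N=4 wells.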

[5] = CFTR mRNA nanoparticle with lipid amine
[6] = Luciferase mRNA nanoparticle modified with lipid amine

SMILES | Diameter (nm) [1, 5] | PDI [1, 5] | Diameter (nm) [1, 6] | PDI [1, 6] | % Encapsulation (Ribogreen) [2, 5] | % Encapsulation (Ribogreen) [2, 6] | Average Relative Light Units ± Standard Deviation (HeLa cells [3]) | Average fold-change in CFTR signal intensity per cell compared to buffer control ± standard deviation (HeLa cells [4])
CC[C@H](CC[C@@H](C)[C@H]1CC[C@H]2[C@@H]3CC=C4C[C@@H](OC(=O)CCC(=O)N(CCCC(C)(C)N)CCC(C)(C)N)CC[C@]4(C)[C@H]3CC[C@]12C)C(C)C [SA167, (3S,8S,9S,10R,13R,14S,17R)-17-((2R,5R)-5-ethyl-6-methylheptan-2-yl)-10,13-dimethyl-2,3,4,7,8,9,10,11,12,13,14,15,16,17-tetradecahydro-1H-cyclopenta[a]phenanthren-3-yl 4-((3-amino-3-methylbutyl)(4-amino-4-methylpentyl)amino)-4-oxobutanoate dihydrochloride] | 75.1 nm | 0.16 | 75 nm | 0.15 | 100% | 98.7% | 38742.4 ± 6037.5 Relative Light Units | 14.9 ± 1.4 fold-change
CC[C@H](CC[C@@H](C)[C@H]1CC[C@H]2[C@@H]3CC=C4C[C@@H](OC(=O)CCC(=O)N(CCC(C)N)CCC(C)N)CC[C@]4(C)[C@H]3CC[C@]12C)C(C)C (stereo partly drawn) [SA168, (3S,8S,9S,10R,13R,14S,17R)-17-((2R,5R)-5-ethyl-6-methylheptan-2-yl)-10,13-dimethyl-2,3,4,7,8,9,10,11,12,13,14,15,16,17-tetradecahydro-1H-cyclopenta[a]phenanthren-3-yl 4-(bis(3-aminobutyl)amino)-4-oxobutanoate dihydrochloride] | 76.1 nm | 0.15 | 79 nm | 0.16 | 99.3% | 99.3% | 35639.5 ± 6688.9 Relative Light Units | 14.8 ± 0.7 fold-change
CC(C)CCC[C@@H](C)[C@H]1CC[C@H]2[C@@H]3CC=C4C[C@@H](OC(=O)CCC(=O)N(CCC(C)(C)N)CCC(C)(C)N)CC[C@]4(C)[C@H]3CC[C@]12C [SA169, (3S,8S,9S,10R,13R,14S,17R)-10,13-dimethyl-17-((R)-6-methylheptan-2-yl)-2,3,4,7,8,9,10,11,12,13,14,15,16,17-tetradecahydro-1H-cyclopenta[a]phenanthren-3-yl 4-(bis(3-amino-3-methylbutyl)amino)-4-oxobutanoate dihydrochloride] | 73.0 nm | 0.14 | 77 nm | 0.20 | 99.2% | 99.4% | 28034.9 ± 4050.3 Relative Light Units | 19.7 ± 1.6 fold-change
CC[C@H](CC[C@@H](C)[C@H]1CC[C@H]2[C@@H]3CC=C4C[C@@H](OC(=O)CCC(=O)N(CCC(C)(C)N)CCC(C)(C)N)CC[C@]4(C)[C@H]3CC[C@]12C)C(C)C [SA170, (3S,8S,9S,10R,13R,14S,17R)-17-((2R,5R)-5-ethyl-6-methylheptan-2-yl)-10,13-dimethyl-2,3,4,7,8,9,10,11,12,13,14,15,16,17-tetradecahydro-1H-cyclopenta[a]phenanthren-3-yl 4-(bis(3-amino-3-methylbutyl)amino)-4-oxobutanoate dihydrochloride] | 74.8 nm | 0.15 | 75 nm | 0.21 | 99.2% | 99.6% | 23687.3 ± 3865 Relative Light Units | 19.0 ± 1.7 fold-change
CC(C)CCC[C@@H](C)[C@H]1CC[C@H]2[C@@H]3CC=C4C[C@@H](SSCCC(=O)N(CCCCNCCC(C)N)CCC(C)N)CC[C@]4(C)[C@H]3CC[C@]12C (stereo partly drawn) [SA171, N-(3-aminobutyl)-N-(4-((3-aminobutyl)amino)butyl)-3-(((3S,8S,9S,10R,13R,14S,17R)-10,13-dimethyl-17-((R)-6-methylheptan-2-yl)-2,3,4,7,8,9,10,11,12,13,14,15,16,17-tetradecahydro-1H-cyclopenta[a]phenanthren-3-yl)disulfaneyl)propanamide trihydrochloride] | 71.3 nm | 0.11 | 73 nm | 0.23 | 99.4% | 99.2% | 22232.4 ± 9084.1 Relative Light Units | 18.9 ± 1.9 fold-change
CC(C)CCC[C@@H](C)[C@H]1CC[C@H]2[C@@H]3CC=C4C[C@@H](SSCCC(=O)N(CCCCCCCC(C)N)CCC(C)N)CC[C@]4(C)[C@H]3CC[C@]12C (stereo partly drawn) [SA172, N-(3-aminobutyl)-N-(8-aminononyl)-3-(((3S,8S,9S,10R,13R,14S,17R)-10,13-dimethyl-17-((R)-6-methylheptan-2-yl)-2,3,4,7,8,9,10,11,12,13,14,15,16,17-tetradecahydro-1H-cyclopenta[a]phenanthren-3-yl)disulfaneyl)propanamide dihydrochloride] | 70.3 nm | 0.13 | 74 nm | 0.10 | 98.3% | 99.4% | 27528.4 ± 6654.4 Relative Light Units | 17.8 ± 1.1 fold-change
CC(C)CCC[C@@H](C)[C@H]1CC[C@H]2[C@@H]3CC=C4C[C@@H](SSCCC(=O)N(CCC(C)N)CCC(C)N)CC[C@]4(C)[C@H]3CC[C@]12C (stereo partly drawn) [SA173, N,N-bis(3-aminobutyl)-3-(((3S,8S,9S,10R,13R,14S,17R)-10,13-dimethyl-17-((R)-6-methylheptan-2-yl)-2,3,4,7,8,9,10,11,12,13,14,15,16,17-tetradecahydro-1H-cyclopenta[a]phenanthren-3-yl)disulfaneyl)propanamide dihydrochloride] | 71.8 nm | 0.16 | 73 nm | 0.18 | 100% | 99.5% | 33596.1 ± 6033 Relative Light Units | 13.5 ± 0.8 fold-change
CC(C)CCC[C@@H](C)[C@H]1CC[C@H]2[C@@H]3CC=C4C[C@@H](SSCCC(=O)N(CCC(C)(C)N)CCC(C)(C)N)CC[C@]4(C)[C@H]3CC[C@]12C [SA174, N,N-bis(3-amino-3-methylbutyl)-3-(((3S,8S,9S,10R,13R,14S,17R)-10,13-dimethyl-17-((R)-6-methylheptan-2-yl)-2,3,4,7,8,9,10,11,12,13,14,15,16,17-tetradecahydro-1H-cyclopenta[a]phenanthren-3-yl)disulfaneyl)propanamide dihydrochloride] | 71.1 nm | 0.16 | 73 nm | 0.17 | 98.1% | 99.5% | 31280.7 ± 5830.7 Relative Light Units | 14.8 ± 1.4 fold-change
CC[C@H](CC[C@@H](C)[C@H]1CC[C@H]2[C@@H]3CC=C4C[C@@H](SSCCC(=O)N(CCCCCCCC(C)N)CCC(C)N)CC[C@]4(C)[C@H]3CC[C@]12C)C(C)C (stereo partly drawn) [SA178, N-(3-aminobutyl)-N-(8-aminononyl)-3-(((3S,8S,9S,10R,13R,14S,17R)-17-((2R,5R)-5-ethyl-6-methylheptan-2-yl)-10,13-dimethyl-2,3,4,7,8,9,10,11,12,13,14,15,16,17-tetradecahydro-1H-cyclopenta[a]phenanthren-3-yl)disulfaneyl)propanamide dihydrochloride] | 83 nm | 0.26 | 75 nm | 0.20 | 100% | 98.8% | 10196.5 ± 602.4 Relative Light Units | 9.8 ± 0.3 fold-change
CC[C@H](CC[C@@H](C)[C@H]1CC[C@H]2[C@@H]3CC=C4C[C@@H](SSCCC(=O)N(CCCCCCCC(C)(C)N)CCC(C)(C)N)CC[C@]4(C)[C@H]3CC[C@]12C)C(C)C [SA179, N-(3-amino-3-methylbutyl)-N-(8-amino-8-methylnonyl)-3-(((3S,8S,9S,10R,13R,14S,17R)-17-((2R,5R)-5-ethyl-6-methylheptan-2-yl)-10,13-dimethyl-2,3,4,7,8,9,10,11,12,13,14,15,16,17-tetradecahydro-1H-cyclopenta[a]phenanthren-3-yl)disulfaneyl)propanamide dihydrochloride] | 73 nm | 0.15 | 73 nm | 0.17 | 99.8% | 99.0% | 12298.9 ± 928.6 Relative Light Units | 7.0 ± 0.6 fold-change
